Reference: patent US20150141375A1 (priority 2009, published 2015)
“Also recorded” adds a separate entry of the source.

Assays:
Vaccinia Virus = test: microbe, parasite or virus in culture; assay type: cell-based; details: Orthopoxvirus vaccinia, HFF
SVG cells = test: SVG cell viability / cell number (MTS, alamar blue, hematoxylin); assay type: cell-based, human
Method: Quantification of cell viability using the MTS [3-(4,5-dimethylthiazol-2-yl)-5-(3-carboxymethoxyphenyl)-2-(4-sulfophenyl)-2H-tetrazolium] assay is based on bioactivity of mitochondrial dehydrogenase in living cells, which converts colorless tetrazolium salt to a colored formazan. MTS assays were performed according to manufacturer's instructions (Promega, Madison Wis.). Briefly, culture medium was removed from cells and 50 μL of PBS was added into each well of a 96 well plate. Ten μL of MTS reagent were added to wells of cells, and to a well without cells to determine background. Mixtures were incubated at 37° C. for 2 hours and the absorbance was measured at 490 nm. Trypan blue staining was performed on identical cultures to correlate MTS values with cell viability. The final values indicated are the result from 3 replicates. The value for the non-treated control was set to 100% and all other values are represented as a percentage of the control. Alamar blue (AB) assay.
Quantification of cell viability using the alamar blue (AB) assay was performed according to the manufacturer's instructions (Invitrogen, Gaithersburg, Md.). Briefly, 10 μL of AB reagent was added to each well of a 96 well dish containing cells or without cells to determine background. Mixtures were incubated at 37° C. for 6 hours and the absorbance measured at 570 nm using 600 nm as a reference wavelength. The value for the non-treated control was set to 100% and all other values are represented as a percentage of the control.
Because cell density in cultures processed for in situ DNA hybridization could not be measured by MTS or AB assays, cell density was approximated in cell cultures processed by quantifying hematoxylin staining intensity. Coverslips containing cells were prepared for in situ DNA hybridization and co-stained with hematoxylin. Subsequently, each coverslip was scanned and the hematoxylin intensities quantified using ImageJ. To determine the total cell number per coverslip, images were acquired at 10 random positions at 100× magnification. Cells were counted throughout each image and the average cell number per slide was generated by averaging counts from the 10 images for each experimental group. Exactly 900 images at 100× magnification cover the surface of an 18 mm×18 mm coverslip.

BK Virus = test: In vitro potency against BK Virus in WI-38 cells; assay type: cell-based; details: Betapolyomavirus hominis, WI-38
HSV-1 [1] = test: microbe, parasite or virus in culture; assay type: cell-based
PK comparison, rabbit = details: in vivo, 2 mg/kg, calculated from doses of 5 and 10 mg/kg, analyte = label, after CMX001
Description: (§1) Table 4 illustrates the PK comparison of CMX001 with CMX021 and CMX064 for mouse, rabbit and human.

HCMV (AD169) = test: HCMV real time array of viral transcripts; assay type: cell-based; details: CDV 50 μM, GCV 15 μM, CMX001 0.5 μM; ANOVA P<0.05
[2] = Vistide 5 mg/kg with probenecid; cited from earlier work
HPV 11 = test: In vitro potency against dsDNA viruses: HPV 11; assay type: cell-based; details: A-431; A431
EBV = test: In vitro potency against dsDNA viruses: EBV; assay type: cell-based; details: human gammaherpesvirus 4; Dardi
JC = test: In vitro potency against dsDNA viruses: JC; assay type: cell-based, JC virus; details: JC polyomavirus
BKV(Dunlop) = details: RPTECs, same test system (Bernhoff et al., 2008), cited from earlier work
HSV-2 = test: In vitro efficacy against HSV-2 strains in HFF (CPE, plaque reduction); assay type: cell-based
Description: In vitro screening by CPE assay in human foreskin fibroblast (HFF) cells with confirmation using plaque reduction assays in HFF.

HCMV(AD169) = test: In vitro potency against dsDNA viruses: HCMV; assay type: cell-based; details: Human betaherpesvirus 5, AD169, MRC5; MRC-5
HSV-1 [3] = test: In vitro potency against dsDNA viruses: HSV-1; assay type: cell-based; details: Human alphaherpesvirus 1, MRC5; MRC-5
HHV-6 = test: In vitro potency against dsDNA viruses: HHV-6; assay type: cell-based; details: HSB2; HSB-2
[4] = Safety and pharmacokinetics of CMX001 in healthy volunteers; assay type: in vivo, human; details: blood, Human, analyte = label
Method: An initial study was conducted to evaluate the safety and pharmacokinetics of CMX001 in healthy volunteers. The study consisted of a single dose arm (SD) and a multiple dose arm (MD). In the single dose arm 7 cohorts of 6 subjects were treated (4 subjects received active drug and 2 placebo). Enrollment was staggered as 2 subjects (one active, one placebo) followed by 4 subjects (Groups A and B). The estimated single doses for the two highest doses treated for a […] subject were 40 mg (0.6 mg/kg cohort 6) and 70 mg (1 mg/kg cohort 7). In the multiple dose arm, cohort 6MD received 0.1 mg/kg on Day 0, 6 and 12; Cohort 7MD received 0.2 mg/kg on Day 0, 6 and 12. Levels of cidofovir, CMX001 and CMX064 (major metabolite) were measured in blood and urine of subjects during the course of the study. Gastrointestinal (GI) monitoring of the subjects included (a) monitoring for clinical signs of GI adverse events, (b) monitoring for clinical symptoms using a visual Analog Scale, (c) monitoring for appetite loss/anorexia, nausea, vomiting, diarrhea, constipation and intestinal gas/bloating, (d) laboratory tests for fecal occult blood; serum electrolytes, urine specific gravity, BUN/creatinine ratio; serum albumin, and lipids, and (e) diagnostic studies (the Wireless capsule endoscopy (PillCam®, Given Imaging)).

HPV 18 = test: In vitro potency against dsDNA viruses: HPV 18; assay type: cell-based; details: HeLa
Variola major = test: organism not typed; assay type: cell-based; details: Vero 76
Adenovirus = test: In vitro activity against Adenovirus (HFF; AdV 5); assay type: cell-based; details: unidentified adenovirus
PK comparison, mouse = assay type: in vivo; details: 2 mg/kg, calculated from doses of 2 and 10 mg/kg, analyte = label, after CMX001
Description: as §1

CMV = details: person with renal failure, all observed time points after CMX001
Mad-4 JCV = test: JCV (Mad-4) initial infection of SVG cells (in situ DNA hybridization, qPCR)

Nc1ccn(C[C@@H](CO)OCP(=O)(O)O)c(=O)n1 [Cidofovir, cidofovir, reference compound]
EC50 (Vaccinia Virus): 46 µM | cytotoxicity (total cell number) (SVG cells; CDV 0.01 to 0.1 μM): did not cause cytotoxicity at any concentration tested | cell density and viability (SVG cells; CDV 0.1 to 1 μM, 4 days): did not elicit any visible changes | EC50 (BK Virus): 115 µM | EC50 (HSV-1 [1]; Human alphaherpesvirus 1, strain E-377): 5.5 ± 6 µM | EC50 (HSV-1 [1]; Human alphaherpesvirus 1, strain F): 1.5 ± 0.4 µM | EC50 (HSV-1 [1]; Human alphaherpesvirus 1, strain HL-3): 3.6 ± 3 µM | AUC (PK comparison, rabbit): 50.1 ng·h/mL | Cmax (PK comparison, rabbit): 5.44 ng/mL | levels of viral transcripts (HCMV (AD169)): Significant reductions in levels of most viral transcripts | peak plasma concentrations of cidofovir [2]: 19,600 ng/mL | EC50 (HPV 11): 716 µM | EC50 (EBV): > 170 µM | EC50 (JC): 0.38 µM | IC-90 of CDV, BKV replication (BKV(Dunlop)): 40 µg/mL | IC90 (BKV(Dunlop); read-out: IC-90 of CDV, BKV replication): 127 µM | EC50 (HSV-2; Human alphaherpesvirus 2, strain G): 5.5 ± 2.1 µM | EC50 (HSV-2; Human alphaherpesvirus 2, strain MS): 5.1 ± 5.4 µM | EC50 (HSV-2; Human alphaherpesvirus 2, strain SR): 5.9 ± 5.9 µM | EC50 (HCMV(AD169)): 0.38 µM | EC50 (HSV-1 [3]): 15 µM | EC50 (HHV-6): 0.2 µM | AUC ([4]; 0.05 mg/kg, CMX001 0.050 mg/kg): 33.3 ng·h/mL | Cmax ([4]; 0.05 mg/kg, CMX001 0.050 mg/kg): 1.51 ng/mL | AUC ([4]; 0.1 mg/kg, CMX001 0.100 mg/kg): 125 ng·h/mL | Cmax ([4]; 0.1 mg/kg, CMX001 0.100 mg/kg): 3.44 ng/mL | AUC ([4]; 0.2 mg/kg, CMX001 0.200 mg/kg): 190 ng·h/mL | Cmax ([4]; 0.2 mg/kg, CMX001 0.200 mg/kg): 5.41 ng/mL | AUC ([4]; 0.4 mg/kg, CMX001 0.400 mg/kg): 445 ng·h/mL | Cmax ([4]; 0.4 mg/kg, CMX001 0.400 mg/kg): 10.4 ng/mL | AUC ([4]; 0.6 mg/kg, CMX001 0.600 mg/kg): 519 ng·h/mL | Cmax ([4]; 0.6 mg/kg, CMX001 0.600 mg/kg): 12.2 ng/mL | EC50 (HPV 18): 516 µM | EC50 (Variola major): 27.3 µM | IC50 (Adenovirus): 1.3 µM | EC50 (Adenovirus; HFF): 1.3 µM | Cmax (PK comparison, mouse): BQL- | plasma concentrations of cidofovir (CMV): below 250 ng/mL | reduction in JCV DNA containing cells (Mad-4 JCV; CDV 0.01 to 0.1 μM, listed as CDV): did not elicit any significant reduction; also recorded: did not show any effect on JCV replication | copy number of JCV genomes (qPCR) (Mad-4 JCV; CDV, any concentration tested): had no affect
